Test results taken from PMC2910436 (Cell, 2010).

Legend:
EntA = EntA (Escherichia coli, UniProt P15047); experiment: NADH formation at […] nm; type: biochemical; conditions: co-substrate 2,3-diDHBA
BDH2 (DHRS6) = BDH2 (DHRS6) (Mus musculus, UniProt Q8JZV9); experiment: NADH formation at […] nm; type: biochemical; conditions: co-substrate 2,3-diDHBA
Sequence of BDH2 (DHRS6) (Q8JZV9 whole entry): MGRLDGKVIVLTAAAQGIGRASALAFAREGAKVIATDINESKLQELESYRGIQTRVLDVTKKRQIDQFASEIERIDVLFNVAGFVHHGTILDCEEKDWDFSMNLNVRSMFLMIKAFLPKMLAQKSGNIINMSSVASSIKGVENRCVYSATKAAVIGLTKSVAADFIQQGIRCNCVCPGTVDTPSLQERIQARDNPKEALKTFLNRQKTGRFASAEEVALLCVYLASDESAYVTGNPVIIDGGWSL

Sequence of EntA (P15047 whole entry): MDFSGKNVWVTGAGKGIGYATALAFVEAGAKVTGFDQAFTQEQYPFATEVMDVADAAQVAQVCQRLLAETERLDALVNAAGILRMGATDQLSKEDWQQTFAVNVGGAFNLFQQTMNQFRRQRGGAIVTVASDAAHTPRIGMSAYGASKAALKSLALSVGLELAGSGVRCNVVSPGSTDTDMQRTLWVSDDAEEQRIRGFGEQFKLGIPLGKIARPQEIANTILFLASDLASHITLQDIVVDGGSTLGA

## NC(=O)c1ccc[n+]([C@@H]2O[C@H](COP(=O)(O)OP(=O)(O)OC[C@H]3O[C@@H](n4cnc5c(N)ncnc54)[C@H](O)[C@@H]3O)[C@@H](O)[C@H]2O)c1 [NAD^+]
EntA
  NADH formation at 340 nm: wild-type EntA and BDH2 proteins, but not their mutant derivatives, catalyzed the conversion of NAD
BDH2 (DHRS6)
  NADH formation at 340 nm: wild-type EntA and BDH2 proteins, but not their mutant derivatives, catalyzed the conversion of NAD
